ChEMBL document CHEMBL3988442, “University of Dundee, Small-Polar-MMV Screening Library” (2021)

Assay: In vitro enzyme assay to detect hydrolysis of chlorophenol red-beta-D-[…] directly proportional to the number of Toxoplasma stably expressing beta-galactosidase
Format: functional, organism-based, Toxoplasma gondii
Conditions: for IC50: Toxoplasma gondii

`CCn1nc(C)c2nc(C(C)C)nc(NCCCn3cccn3)c21` gave an IC50 of 35.2 µM.

`COC(=O)c1cnc2c(c(C)nn2C)c1OC` gave an IC50 greater than 50.1 µM.

In the case of `Cc1cc(CN2CCC3(CC2)COC(COc2ccccn2)C3)no1` (centres undefined), the IC50 is reported as greater than 50.1 µM.

For `Cc1cc(C(=O)Nc2ccc3c(c2)CC(=O)N3)c(C)o1`, the IC50 was greater than 50.1 µM.

In the case of `CO[C@H]1[C@@H]2CC[C@H]1CN(c1nc(C)nc3ccsc13)C2`, the IC50 is reported as 6.77 µM.

Compound `COc1c(N)c(C)nn1C` has an IC50 greater than 50.1 µM.

In the case of `O=C(NCCN1CCOCC1)c1cc(-c2ccc(Cl)s2)[nH]n1`, the IC50 is reported as 5.29 µM.

`COc1ccc(-n2nnc(C(=O)O)c2-c2ccccn2)cc1` gave an IC50 of 24.8 µM.

`COC(=O)c1cnc2[nH]nc(C)c2c1` showed an IC50 greater than 50.1 µM.

Compound `O=C(Nc1ccc(Br)cn1)C1CCCNC1` (centres undefined) has an IC50 greater than 50.1 µM.

For `OC[C@H]1CCCN1c1nccc(-c2c[nH]nc2C2CCCCC2)n1`, the IC50 was 11.5 µM.

`Cc1c(C)n(Cc2ccccn2)c2nc3c(c(N)c12)CCCCCC3` showed an IC50 of 6.75 µM.

For `CCc1nc(Nc2ccc(C(=O)NC)cc2)c2c(n1)c(C)nn2CC`, the pIC50 was less than 4.3 and the IC50 was 37.2 µM.

For `c1cc(-c2c[nH]nc2C2CCCCC2)nc(N2CCCCCC2)n1`, the IC50 was 6.23 µM.

`Cc1cc(C(=O)Nc2cnn(CC(F)(F)F)c2)nc(N(C)C)n1` gave an IC50 greater than 50.1 µM.

`O=C(CCNC(=O)c1ccccc1F)Nc1nccs1` gave an IC50 greater than 50.1 µM.

`CC(C)c1cc(CN(C)C(=O)C(C)N2CCc3ccccc3C2)no1` (centres undefined) showed an IC50 greater than 50.1 µM.

In the case of `CS(=O)(=O)Nc1nn(Cc2ccc(F)cc2)cc1Br`, the IC50 is reported as greater than 50.1 µM.

With `CCCn1c(N2CCCCC2)nc2c(C)nn(C)c2c1=O` the IC50 was 34.4 µM.

In the case of `CCc1nc(C(C)(C)N)[nH]c(=O)c1C`, the IC50 is reported as greater than 50.1 µM.

With `CCC(CC)(CC)SCC(=O)N1CCNC(=O)C1` the IC50 was greater than 50.1 µM.

`CSCCC1c2nc[nH]c2CCN1Cc1cc(Cl)ccc1O` (centres undefined) gave an IC50 of 12.3 µM.

Work on `CCc1ccccc1NC(=O)C1=NN(C)C(=O)CC1` yielded an IC50 greater than 50.1 µM.

For `Cc1nnc(SCCNC(=O)CC2C=CS(=O)(=O)C2)s1` (centres undefined), the IC50 was greater than 50.1 µM.

Compound `COCC(=O)N1CCn2c(COc3cccnc3)cnc2C1C` (centres undefined) has an IC50 greater than 50.1 µM.

With `CN1CCC(NC(=O)c2cc3ccccc3s2)C1=O` (centres undefined) the IC50 was greater than 50.1 µM.

In the case of `CC(C)(C(=O)N1CCC(N)CC1)c1cccc(F)c1`, the IC50 is reported as greater than 50.1 µM.

`CNC(=O)NCc1cccnc1OC1CCCC1` showed an IC50 greater than 50.1 µM.

Compound `CC(=O)N1C[C@@H](c2ccsc2)[C@@H]2CN(Cc3ccccc3C)CC[C@@H]21` has an IC50 of 18.9 µM.

`CCn1nc(C)c2nc(C(C)C)nc(NC)c21` showed an IC50 greater than 50.1 µM.

Compound `NC(=O)C1CCN(c2nccc(-c3c[nH]nc3C3CCCCC3)n2)CC1` has an IC50 of 8.32 µM.

For `N[C@@H]1CC[C@H](C(=O)NCc2csc(N3CCCC3)n2)C1`, the IC50 was greater than 50.1 µM.

`Cc1cc(C(=O)NCCc2noc(C3CC3)n2)nn1C` gave an IC50 greater than 50.1 µM.

Compound `O[C@@H]1CN(c2nc3ccccc3s2)CC[C@H]1c1ccc2c(c1)OCO2` has an IC50 of 5.27 µM.

In the case of `CCCNS(=O)(=O)c1nc2nc(C)cc(C)n2n1`, the IC50 is reported as greater than 50.1 µM.

With `CCc1cnc(CNC)s1` the IC50 was greater than 50.1 µM.

`Cc1ccc(CNC(=O)C2CCCCC(=O)N2)o1` (centres undefined) gave an IC50 greater than 50.1 µM.

`COC(=O)c1ccc(NS(=O)(=O)c2cnc(NC(C)=O)s2)cc1` gave an IC50 greater than 50.1 µM.

In the case of `N#Cc1ccc(C2NC(=O)c3cccnc3N2)cc1` (centres undefined), the IC50 is reported as greater than 50.1 µM.

With `N#Cc1ccccc1NC(=O)CCN1CCCC(O)C1` (centres undefined) the IC50 was greater than 50.1 µM.

For `N#Cc1ccc(-n2nccc2N)cc1`, the IC50 was 13.6 µM.

`CC(=O)Nc1ccc(CN2CCCOC(C)C2)cc1` (centres undefined) gave an IC50 greater than 50.1 µM.

Work on `Cc1nnc(NCc2cccc(OCC3CCCO3)c2)c(C#N)c1C` (centres undefined) yielded an IC50 greater than 50.1 µM.

`O=C(c1ccc(COc2ccccc2Cl)o1)N1N=CCC1(O)C(F)(F)F` (centres undefined) gave a pIC50 of 5.104 and an IC50 of 6.07 µM.

`CCc1cc(=O)[nH]c(-c2ccc(NCCc3ccc(O)cc3)nc2)n1` gave an IC50 of 1.18 µM.

With `O=C(C[C@@H]1COC[C@H]2CN(Cc3ccncc3)C[C@@H]12)N1CCCC1` the IC50 was greater than 50.1 µM.

Work on `CSC(C)C(=O)N1CCCN(c2cccnn2)CC1` (centres undefined) yielded an IC50 greater than 50.1 µM.

With `CCC1=NC(SCC(=O)c2ccccc2)c2cc(CC)sc2N1` (centres undefined) the IC50 was 14.9 µM.

Work on `COCc1nn(CC(=O)c2cc(F)ccc2F)c(=O)o1` yielded an IC50 greater than 50.1 µM.

`COc1c(CNC2(c3noc(C)n3)CCC2)c(C)nn1C` showed an IC50 greater than 50.1 µM.

`CC(C)(C)OC(=O)NCC1CC(C(N)=O)=NO1` (centres undefined) showed an IC50 greater than 50.1 µM.

With `CN1CCCN(C(=O)COc2ccc(Br)cc2)CC1` the IC50 was greater than 50.1 µM.

Compound `O=C1COC2(CCN(S(=O)(=O)C3CC3)CC2)CN1c1cccnc1` has an IC50 greater than 50.1 µM.

Compound `CCn1nc(C)c2nc(C(C)C)nc(NCCCn3ccnc3)c21` has an IC50 greater than 50.1 µM.

Compound `COc1ccc(C2CCCN2c2ccnc(C)c2Cl)c(OC)c1` (centres undefined) has an IC50 of 14 µM.

`CCn1cc(CN(C)S(=O)(=O)c2ccccc2)cn1` showed an IC50 greater than 50.1 µM.

In the case of `Cn1cccc1C(=O)N1C[C@@H](OCc2ccncc2)[C@@H]2OCCC[C@@H]21`, the IC50 is reported as greater than 50.1 µM.

`Cc1nccn1CCNc1cc(C2CC(O)C2)ncn1` (centres undefined) showed an IC50 greater than 50.1 µM.

Compound `COc1ccc(-c2cncc(N)c2)cc1CO` has an IC50 greater than 50.1 µM.

`COc1ccc(CC#N)cc1S(C)(=O)=O` gave an IC50 greater than 50.1 µM.

`c1cnc(-c2nn3c(CN4CCCCC4)nnc3s2)cn1` gave an IC50 greater than 50.1 µM.

`Cc1nc(N2CCN(c3ccccc3)CC2)c2c(n1)c(C)nn2C` showed an IC50 greater than 50.1 µM.

`Cc1ccnc(NC(=O)N(C)Cc2ccncc2)c1` showed an IC50 greater than 50.1 µM.

`Cc1cc2cc(C(=O)N3CC[C@@H](N)[C@H](O)C3)ccc2o1` gave an IC50 greater than 50.1 µM.

Compound `NCCc1cc(-c2ccncc2)[nH]n1` has an IC50 greater than 50.1 µM.

With `Cc1c(S(=O)(=O)N2CCOCC2)cc2c(C)cc(=O)n3c2c1CCC3` the IC50 was greater than 50.1 µM.

With `O=C(CN1CCN(C(=O)c2ccco2)CC1)NC1CC1` the IC50 was greater than 50.1 µM.
